Test systems include A498 renal; IGROV1 ovarian; OVCAR-8 ovarian; SNB-75 CNS; SK-MEL-2 melanoma; MDA-MB-231 breast; MOLT-4 leukemia; HCC-2998 colon; ACHN renal; OVCAR-3 ovarian.
Experiment in all cases: DTP human tumour cell line panel, 48 h

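96-well plates; 48 h exposure; 5 concentrations. Endpoints by linear interpolation between flanking doses. Not reached: highest tested concentration assigned. GI50: concentration for 50% inhibition of growth. TGI: concentration producing complete growth inhibition.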

The record followed here is PubChem BioAssay (NCI).

As to `C=C(CO[Si](C)(C)C(C)(C)C)C(C)=O`, the TGI (usually the concentration giving total growth inhibition) in the test on A498 renal is more than 100 µM; in the test on IGROV1 ovarian, more than 69.7 µM; in the test with OVCAR-8 ovarian, 37.5 µM; in the test with SNB-75 CNS it was 62.3 µM; in the test on SK-MEL-2 melanoma, 54.7 µM; in the test on MDA-MB-231 breast it was 46.6 µM. Besides, the TGI was more than 21.2 µM with MOLT-4 leukemia, 57.3 µM in the test with HCC-2998 colon, more than 71.4 µM in the test on ACHN renal and 38.1 µM with OVCAR-3 ovarian.
`CCOP(=O)(OCC)C1CC(n2cc(C)c(=O)[nH]c2=O)OC1CO` (configuration not stated): the TGI with A498 renal, with IGROV1 ovarian, in the test on OVCAR-8 ovarian, in the test on SNB-75 CNS, in the test with SK-MEL-2 melanoma and with MDA-MB-231 breast was more than 100 µM in each case. The TGI with MOLT-4 leukemia, in the test on HCC-2998 colon, with ACHN renal and in the test on OVCAR-3 ovarian was more than 100 µM throughout.
For `OC(CCNCc1ccccc1)c1ccc2ccccc2c1` (configuration not stated), the TGI was determined as 40 µM in the test on A498 renal; 30.6 µM in the test with IGROV1 ovarian; 45.9 µM with OVCAR-8 ovarian; 75.6 µM in the test with SNB-75 CNS; 38.9 µM in the test with SK-MEL-2 melanoma; 35.3 µM in the test with MDA-MB-231 breast. Also, the TGI is 84.8 µM in the test on MOLT-4 leukemia, 62.8 µM with HCC-2998 colon, 41.5 µM in the test on ACHN renal and 29.5 µM with OVCAR-3 ovarian.
Take `O=C(Nc1ccccc1)N(CCCCN(Cc1ccccc1)C(=O)Nc1ccccc1)Cc1ccccc1`: the TGI with A498 renal, in the test on IGROV1 ovarian, with OVCAR-8 ovarian, with SNB-75 CNS, in the test with SK-MEL-2 melanoma and with MDA-MB-231 breast was more than 100 µM throughout. Moreover, the TGI with MOLT-4 leukemia, with HCC-2998 colon, with ACHN renal and with OVCAR-3 ovarian was more than 100 µM throughout.
`COc1ccc(-c2cc(-c3ccc(Nc4ccnc5cc(Cl)ccc45)cc3)[nH]c(=O)c2C#N)c2ccccc12`: the TGI with A498 renal was 49.7 µM; in the test on IGROV1 ovarian it was more than 79.1 µM; in the test with OVCAR-8 ovarian, 5.41 µM; with SNB-75 CNS, 95.4 µM; with SK-MEL-2 melanoma, more than 100 µM; with MDA-MB-231 breast it was 51.1 µM. Besides, the TGI in the test on MOLT-4 leukemia is 6.17 µM; with HCC-2998 colon, more than 92.9 µM; with ACHN renal it was more than 100 µM; with OVCAR-3 ovarian it was 5.34 µM.
Take `CC(C)C(OC(=O)c1ccc(NCc2cc(O)ccc2O)cc1)C(C)C`: the total growth inhibition concentration (TGI) in the test with A498 renal turned out to be 9.58 µM; in the test with IGROV1 ovarian, 2.35 µM; in the test on OVCAR-8 ovarian, 3.77 µM; with SNB-75 CNS, 3.7 µM; in the test with SK-MEL-2 melanoma, 6.68 µM; in the test with MDA-MB-231 breast, 9.15 µM. For the same molecule, the total growth inhibition concentration (TGI) in the test with MOLT-4 leukemia was 0.956 µM; with HCC-2998 colon it was 10.2 µM; in the test on ACHN renal, 2.33 µM; in the test with OVCAR-3 ovarian, 4.37 µM.
Turning to `CCCCCCCCCCCCCCCCCCNc1ccn(C2OC(COP(=O)(O)OCC3OC(n4cc(F)c(NCCCCCCCCCCCCCCCCCC)nc4=O)CC3O)C(O)C2O)c(=O)n1` (configuration not stated), the TGI with A498 renal, in the test on IGROV1 ovarian, in the test with OVCAR-8 ovarian, in the test on SNB-75 CNS, in the test on SK-MEL-2 melanoma and with MDA-MB-231 breast was more than 100 µM throughout. Also, the TGI with MOLT-4 leukemia, with HCC-2998 colon, in the test on ACHN renal and in the test with OVCAR-3 ovarian was more than 100 µM in each case.
On to `C(CCCCc1nnc(N2CCCCC2)o1)CCCc1nnc(N2CCCCC2)o1`, for which the TGI with A498 renal, in the test on IGROV1 ovarian, in the test with OVCAR-8 ovarian, in the test with SNB-75 CNS, in the test with SK-MEL-2 melanoma and with MDA-MB-231 breast was more than 100 µM in each case. Moreover, the TGI with MOLT-4 leukemia, with HCC-2998 colon, with ACHN renal and in the test with OVCAR-3 ovarian was more than 100 µM each time.
`CC1(C)CC(C)(C)C1=NNC(N)=O`: the TGI in the test with A498 renal, in the test with IGROV1 ovarian, with OVCAR-8 ovarian, with SNB-75 CNS, in the test with SK-MEL-2 melanoma and in the test on MDA-MB-231 breast was more than 100 µM each time. The TGI in the test with MOLT-4 leukemia, in the test on HCC-2998 colon, in the test with ACHN renal and in the test on OVCAR-3 ovarian was more than 100 µM in each case.
For `COc1cc(/C=C2\Sc3scc(-c4cccc([N+](=O)[O-])c4)[n+]3C2=O)cc(OC)c1OC`, the TGI in the test with A498 renal is more than 100 µM; in the test with IGROV1 ovarian it was 29.4 µM; in the test with OVCAR-8 ovarian, more than 100 µM; in the test with SNB-75 CNS, 8.77 µM; in the test with SK-MEL-2 melanoma, 39.8 µM; with MDA-MB-231 breast it was 25.2 µM. The TGI in the test on MOLT-4 leukemia was 11.8 µM; with HCC-2998 colon it was 27.5 µM; in the test on ACHN renal, 28.1 µM; in the test on OVCAR-3 ovarian, 44.8 µM.
In the case of `O=C1c2cc3c(cc2CC12Cc1ccc4c(c1C2=O)CCCC4)CCCC3` (configuration not stated), the TGI with A498 renal was 59.7 µM; in the test on IGROV1 ovarian, more than 100 µM; in the test with OVCAR-8 ovarian, more than 100 µM; in the test on SNB-75 CNS, more than 100 µM; with SK-MEL-2 melanoma, more than 100 µM; in the test with MDA-MB-231 breast, more than 100 µM. The TGI with MOLT-4 leukemia, in the test on HCC-2998 colon, with ACHN renal and with OVCAR-3 ovarian was more than 100 µM in each case.
With `N#Cc1ccccc1-c1nc2c3c(c(N)ccc3n1)C(=O)c1ccccc1-2`, the TGI in the test with A498 renal, in the test with IGROV1 ovarian, in the test with OVCAR-8 ovarian, in the test with SNB-75 CNS, in the test on SK-MEL-2 melanoma and in the test with MDA-MB-231 breast was more than 100 µM each time. Besides, the TGI in the test on MOLT-4 leukemia, in the test on HCC-2998 colon, in the test with ACHN renal and with OVCAR-3 ovarian was more than 100 µM throughout.
With `CC1(C)C2C=CC1(C)C1(CC2)OCCO1` (configuration not stated), the TGI with A498 renal, in the test with IGROV1 ovarian, in the test on OVCAR-8 ovarian, in the test with SNB-75 CNS, in the test on SK-MEL-2 melanoma and in the test on MDA-MB-231 breast was more than 100 µM in each case. Further, the TGI in the test on MOLT-4 leukemia, in the test with HCC-2998 colon, with ACHN renal and in the test with OVCAR-3 ovarian was more than 100 µM in each case.
Turning to `CSC1=N/C(=C\c2ccco2)C(=O)N1CN1CCOCC1`, the TGI in the test with A498 renal, with IGROV1 ovarian, with OVCAR-8 ovarian, with SNB-75 CNS, in the test with SK-MEL-2 melanoma and in the test on MDA-MB-231 breast was more than 100 µM in each case. Further, the TGI in the test with MOLT-4 leukemia is more than 96.2 µM; in the test on HCC-2998 colon, 97 µM; in the test on ACHN renal, more than 89.4 µM; in the test with OVCAR-3 ovarian, more than 100 µM.
For the molecule `COC(=O)C(Cc1ccccc1)NP(=O)(O)OCC1OC(n2cc(F)c(=O)[nH]c2=O)CC1O` (configuration not stated), the TGI in the test on A498 renal, with IGROV1 ovarian, with OVCAR-8 ovarian, in the test with SNB-75 CNS, in the test on SK-MEL-2 melanoma and in the test on MDA-MB-231 breast was more than 100 µM each time. Further, the TGI is more than 93.9 µM in the test on MOLT-4 leukemia, more than 100 µM in the test with HCC-2998 colon, more than 100 µM with ACHN renal and more than 100 µM in the test on OVCAR-3 ovarian.
As for `COC1OC2COC1(OC)C1OC(C)(C)OC21` (configuration not stated), the TGI with A498 renal, in the test with IGROV1 ovarian, in the test on OVCAR-8 ovarian, with SNB-75 CNS, with SK-MEL-2 melanoma and in the test with MDA-MB-231 breast was more than 100 µM in each case. Besides, the TGI in the test with MOLT-4 leukemia, in the test on HCC-2998 colon, in the test with ACHN renal and with OVCAR-3 ovarian was more than 100 µM in each case.
As for `CCOC(=O)c1cnc2oc3ccc(O)cc3c2c1-c1ccccc1`, the TGI in the test on A498 renal was more than 100 µM; in the test with IGROV1 ovarian, more than 100 µM; with OVCAR-8 ovarian it was more than 100 µM; with SNB-75 CNS, 52.4 µM; with SK-MEL-2 melanoma, more than 100 µM; in the test with MDA-MB-231 breast it was 84.5 µM. Besides, the TGI with MOLT-4 leukemia, with HCC-2998 colon, with ACHN renal and in the test on OVCAR-3 ovarian was more than 100 µM each time. Besides, the figures for the GI50 in the test with IGROV1 ovarian and in the test on SNB-75 CNS were 2530 nM and 16.5 µM, respectively.
`CCCC(=O)NC(Nc1ccc(S(=O)(=O)Nc2nc(C)cc(C)n2)cc1)(C(F)(F)F)C(F)(F)F`: the TGI with A498 renal, with IGROV1 ovarian, in the test with OVCAR-8 ovarian, in the test on SNB-75 CNS, in the test on SK-MEL-2 melanoma and in the test with MDA-MB-231 breast was more than 100 µM throughout. For the same molecule, the TGI with MOLT-4 leukemia, with HCC-2998 colon, in the test on ACHN renal and in the test with OVCAR-3 ovarian was more than 100 µM in each case.
For the molecule `O=c1ccn(CC2(CO)CC(Cc3ccccc3)C2)c(=O)[nH]1` (configuration not stated), the TGI in the test on A498 renal, with IGROV1 ovarian, in the test with OVCAR-8 ovarian, in the test with SNB-75 CNS, with SK-MEL-2 melanoma and with MDA-MB-231 breast was more than 100 µM throughout. Further, the TGI with MOLT-4 leukemia, in the test with HCC-2998 colon, in the test on ACHN renal and with OVCAR-3 ovarian was more than 100 µM each time.
In the case of `COc1ccc(NC(C)=O)cc1N1C(=O)/C(=C\c2cc(OC)c(OC)c(OC)c2)SC1c1ccccc1` (configuration not stated), the TGI with A498 renal, in the test with IGROV1 ovarian, with OVCAR-8 ovarian, in the test on SNB-75 CNS, with SK-MEL-2 melanoma and in the test on MDA-MB-231 breast was more than 100 µM each time. Further, the TGI with MOLT-4 leukemia was 65.6 µM; with HCC-2998 colon it was more than 100 µM; with ACHN renal, more than 100 µM; in the test on OVCAR-3 ovarian it was more than 100 µM.
For the molecule `O=C(O)c1nc(-c2ccccc2)[nH]c1C(=O)O`, the TGI in the test on A498 renal amounted to 29.1 µM; in the test on IGROV1 ovarian, 28.2 µM; in the test with OVCAR-8 ovarian, 29.7 µM; in the test on SNB-75 CNS, 33.6 µM; with SK-MEL-2 melanoma, 21.3 µM; in the test with MDA-MB-231 breast it was 11.3 µM. Besides, the TGI came out at 9.64 µM with MOLT-4 leukemia, 12.8 µM in the test with HCC-2998 colon, 30.7 µM with ACHN renal and 26.4 µM in the test with OVCAR-3 ovarian.
Turning to `CC1(O)CC(=O)c2c(cc3ccc(-c4c5c(c(O)c6c(O)cccc46)C(=O)CC(C)(O)C5)c(O)c3c2O)C1` (configuration not stated), the TGI with A498 renal was determined as 3.53 µM; with IGROV1 ovarian it was 3.43 µM; in the test with OVCAR-8 ovarian, 3.76 µM; in the test with SNB-75 CNS it was 0.773 µM; with SK-MEL-2 melanoma, 0.897 µM; in the test with MDA-MB-231 breast, 3.93 µM. The TGI in the test with MOLT-4 leukemia came out at 8.36 µM; in the test on HCC-2998 colon, 1.07 µM; in the test on ACHN renal it was 11 µM; in the test with OVCAR-3 ovarian, 0.646 µM.
